Results from patent US11274124B2, “Tubulysin analogues as anticancer agents and payloads for antibody-drug conjugates and methods of treatment therewith” (William Marsh Rice University, priority 2017, dated 2022).
Where two headings read alike, the source gives them in different places.

Tests used:
[1] = system: MES SA, MES SA DX and HEK 293T cells; test: In vitro cytotoxicity assay, structure-activity discussion over the cell lines tested; settings: refers to Tables 2 and 3
[2] = system: HEK 293T (human embryonic kidney cancer cell line); test: In vitro cytotoxicity assay (CellTiter-Glo, 72 hours), HEK 293T; format: cell-based; settings: Homo sapiens, HEK-293T
[3] = system: MES SA (uterine sarcoma cell line); test: In vitro cytotoxicity assay (CellTiter-Glo, 72 hours), MES SA; format: cell-based; settings: Homo sapiens, MES-SA
[4] = system: MES SA DX (MES SA cell line with marked multi-drug resistance); test: In vitro cytotoxicity assay (CellTiter-Glo, 72 hours), MES SA DX; settings: for IC50: Homo sapiens, MES-SA, 72 h
[5] = read-out: MES SA DX, IC50 Value in nM
[6] = 72 h, read-out: HEK 293T, IC50 Value in nM
[7] = 72 h, read-out: MES SA, IC50 Value in nM

| SMILES | cytotoxicity potency (in words, structure-activity discussion) [1] | IC50 ([2]; Table 2, 72 hours, CellTiter-Glo, read-out: HEK 293T, IC50 Value in nM) [nM] | IC50 ([3]; Table 2, 72 hours, CellTiter-Glo, read-out: MES SA, IC50 Value in nM) [nM] | IC50 [4, 5] [nM] | IC50 [2, 6] [nM] | IC50 [3, 7] [nM] | IC50 ([2]; 72 h, read-out: HEK 293T, IC50) [nM] | IC50 ([3]; 72 h, read-out: MES SA, IC50) [nM] | IC50 ([4]; read-out: MES SA DX, IC50) [nM] | cytotoxicities against the marked drug resistant cancer cell line MES SA DX (in words) [4] |
| --- | --- | --- | --- | --- | --- | --- | --- | --- | --- | --- |
| CCCCN1CCCC[C@@H]1C(=O)N[C@H](C(=O)N(C)[C@H](CCc1nc(C(=O)N[C@@H](Cc2ccccc2)C[C@H](C)C(=O)OC)cs1)C(C)C)C(C)C [PTb-D49] | insignificant or low biological activity | > 1000 | > 1000 | > 1000 | – | – | – | – | – | – |
| CC(C)[C@H](NC(=O)[C@H]1CCCCN1C)C(=O)N(C)[C@H](C[C@@H](O)c1nc(C(=O)N[C@@H](Cc2ccccc2)C[C@H](C)C(=O)O)cs1)C(C)C [Tb60, (2S,4R)-4-[({2-[(1R,3R)-1-Hydroxy-4-methyl-3-{methyl[(2S)-3-methyl-2-({[(2R)-1-methylpiperidin-2-yl]carbonyl}amino)butanoyl]amino}pentyl]-1,3-thiazol-4-yl}carbonyl)amino]-2-methyl-5-phenylpentanoic acid] | significant reduction in potency | – | – | > 2500 | 6.34 | 14 | – | – | – | – |
| CCCCN1CCCC[C@@H]1C(=O)N[C@H](C(=O)N(C)[C@H](CCc1nc(C(=O)N[C@@H](Cc2ccccc2)C[C@H](C)C(=O)OC)cs1)C(C)C)[C@@H](C)CC [PTb-D47] | insignificant or low biological activity | – | – | > 1000 | > 1000 | > 1000 | – | – | – | – |
| CC[C@H](C)[C@H](NC(=O)[C@H]1CCCCN1C)C(=O)N(C)[C@H](CC(=O)c1nc(C(=O)N[C@@H](Cc2ccccc2)C[C@H](C)C(=O)O)cs1)C(C)C [Tb59, (2S,4R)-2-Methyl-4-[({2-[(3R)-4-methyl-3-{methyl[(2S,3S)-3-methyl-2-({[(2R)-1-methylpiperidin-2-yl]carbonyl}amino)pentanoyl]amino}pentanoyl]-1,3-thiazol-4-yl}carbonyl)amino]-5-phenylpentanoic acid] | significant reduction in potency | – | – | > 1000 | > 1000 | > 1000 | – | – | – | – |
| Cc1sc(C(=O)C[C@H](C(C)C)N(C)C(=O)[C@@H](NC(=O)[C@H]2CCCCN2C)C(C)C)nc1C(=O)N[C@@H](Cc1ccccc1)C[C@H](C)C(=O)O [Tb68, (2S,4R)-2-Methyl-4-[({5-methyl-2-[(3R)-4-methyl-3-{methyl[(2S)-3-methyl-2-({[(2R)-1-methyl-piperidin-2-yl]carbonyl}amino)butanoyl]amino}pentanoyl]-1,3-thiazol-4-yl}carbonyl)amino]-5-phenylpentanoic acid] | significant reduction in potency | – | – | > 1000 | > 1000 | > 1000 | – | – | – | – |
| CC(C)[C@H](NC(=O)[C@H]1CCCCN1C)C(=O)N(C)[C@H](CC(=O)c1nc(C(=O)N[C@@H](Cc2ccccc2)C[C@H](C)C(=O)O)cs1)C(C)C [Tb62, (2S,4R)-2-Methyl-4-[({2-[(3R)-4-methyl-3-{methyl[(2S)-3-methyl-2-({[(2R)-1-methylpiperidin-2-yl]-carbonyl}amino)butanoyl]amino}pentanoyl]-1,3-thiazol-4-yl}carbonyl)amino]-5-phenylpentanoic acid] | significant reduction in potency | – | – | > 1000 | > 1000 | > 1000 | – | – | – | – |
| CCOC(=O)[C@@H](C)C[C@H](Cc1ccccc1)NC(=O)c1csc([C@@H](C[C@H](C(C)C)N(C)C(=O)[C@@H](NC(=O)[C@H]2CCCCN2C)C(C)(C)CC)OC(C)=O)n1 [Tb108, Ethyl (2S,4R)-4-[({2-[(1R,3R)-1-acetoxy-3-{[(2S)-3,3-dimethyl-2-({[(2R)-1-methylpiperidin-2-yl]car-bonyl}amino)pentanoyl](methyl)amino}-4-methylpentyl]-1,3-thiazol-4-yl}carbonyl)amino]-2-methyl-5-phenylpentanoate] | exceptional potencies | – | – | 6.08 | 0.38 | 0.95 | 0.38 | 0.95 | 6.08 | – |
| CC(=O)O[C@H](C[C@H](C(C)C)N(C)C(=O)[C@@H](NC(=O)[C@H]1CCCCN1C)C(C)C)c1nc(C(=O)N[C@@H](Cc2ccccc2)C[C@H](C)C(=O)O)c(C)s1 [Tb67, (2S,4R)-4-[({2-[(1R,3R)-1-Acetoxy-4-methyl-3-{methyl[(2S)-3-methyl-2-({[(2R)-1-methylpiperidin-2-yl]carbonyl}amino)butanoyl]amino}pentyl]-5-methyl-1,3-thiazol-4-yl}carbonyl)amino]-2-methyl-5-phenylpentanoic acid] | some loss of potency | – | – | 71.5 | 0.143 | 0.836 | 0.144 | 0.836 | 71.5 | – |
| CC(=O)O[C@H](C[C@H](C(C)C)N(C)C(=O)[C@@H](NC(=O)[C@H]1CCCCN1C)C(C)(C)C)c1nc(C(=O)N[C@@H](Cc2ccccc2)C[C@H](C)C(=O)O)cs1 [Tb107, (2S,4R)-4-[({2-[(1R,3R)-1-Acetoxy-3-{[(2S)-3,3-dimethyl-2-({[(2R)-1-methylpiperidin-2-yl]carbonyl}amino)butanoyl](methyl)amino}-4-methylpentyl]-1,3-thiazol-4-yl}carbonyl)amino]-2-methyl-5-phenylpentanoic acid] | exceptional potencies | – | – | 4.05 | 0.02 | 0.01 | 0.02 | 0.01 | 4.05 | relatively potent (low nanomolar) |
| COC(=O)C12CC(NC(=O)c3csc([C@@H](C[C@H](C(C)C)N(C)C(=O)[C@@H](NC(=O)[C@H]4CCCCN4C)C(C)C)OC(C)=O)n3)(C1)C2 [Tb102, Methyl 3-{[(2-{1-acetoxy-4-methyl-3-[methyl(3-methyl-2-{[(1-methylpiperidin-2-yl)carbonyl]amino}-butanoyl)amino]pentyl}-1,3-thiazol-4-yl)carbonyl]amino}bicyclo[1.1.1]pentane-1-carboxylate] | subnanomolar potencies against two of the cell lines tested | – | – | 54.1 | 0.355 | 0.926 | 0.355 | 0.926 | 54.1 | – |
| CCOC(=O)[C@@H](C)C[C@H](Cc1ccccc1)NC(=O)c1csc([C@@H](C[C@H](C(C)C)N(C)C(=O)[C@@H](NC(=O)[C@H]2CCCCN2C)C(C)(C)C)OC(C)=O)n1 [Tb106, Ethyl (2S,4R)-4-[({2-[(1R,3R)-1-acetoxy-3-{[(2S)-3,3-dimethyl-2-({[(2R)-1-methylpiperidin-2-yl]car-bonyl}amino)butanoyl](methyl)amino}-4-methylpentyl]-1,3-thiazol-4-yl}carbonyl)amino]-2-methyl-5-phenylpentanoate] | exceptional potencies | – | – | 2.73 | 0.13 | 0.12 | 0.13 | 0.12 | 2.73 | – |
| CCCC[C@H](NC(=O)[C@H]1CCCCN1C)C(=O)N(C)[C@H](C[C@@H](OC(C)=O)c1nc(C(=O)N[C@@H](Cc2ccccc2)C[C@H](C)C(=O)OCC)cs1)C(C)C [Tb95, Ethyl (2S,4R)-4-[({2-[(1R,3R)-1-acetoxy-4-methyl-3-{methyl[(2S)-2-({[(2R)-1-methylpiperidin-2-yl]-carbonyl}amino)hexanoyl]amino}pentyl]-1,3-thiazol-4-yl}carbonyl)amino]-2-methyl-5-phenylpentanoate] | lack of or significantly lower cytotoxicities | – | – | > 1000 | 0.53 | 0.937 | 0.53 | 0.937 | > 1000 | – |
| CCCC[C@H](NC(=O)[C@H]1CCCN1C)C(=O)N(C)[C@H](C[C@@H](OC(C)=O)c1nc(C(=O)N[C@@H](Cc2ccccc2)C[C@H](C)C(=O)OCC)cs1)C(C)C [Tb96, Ethyl (2S,4R)-4-[({2-[(1R,3R)-1-acetoxy-4-methyl-3-{methyl[(2S)-2-({[(2R)-1-methylpyrrolidin-2-yl]carbonyl}amino)hexanoyl]amino}pentyl]-1,3-thiazol-4-yl}carbonyl)amino]-2-methyl-5-phenylpentanoate] | lack of or significantly lower cytotoxicities | – | – | > 1000 | 5.26 | 10.5 | – | – | – | – |
| COC(=O)[C@@H](C)C[C@H](Cc1ccccc1)NC(=O)c1csc(C(=O)C[C@H](C(C)C)N(C)C(=O)[C@@H](NC(=O)[C@H]2CCCCN2C)C(C)C)n1 [Tb63, Methyl (2S,4R)-2-methyl-4-[({2-[(3R)-4-methyl-3-{methyl[(2S)-3-methyl-2-({[(2R)-1-methylpiperidin-2-yl]carbonyl}amino)butanoyl]amino}pentanoyl]-1,3-thiazol-4-yl}carbonyl)amino]-5-phenylpentanoate] | significant reduction in potency | – | – | > 1000 | > 1000 | > 1000 | – | – | – | – |
